Experimental data: patent publication US20110130346A1, “PEPTIDE CONJUGATES FOR DELVERY OF BIOLOGICALLY ACTIVE COMPOUNDS” (ISIS INNOVATION LIMITED, priority 2008, published 2011)

How the values were obtained:
[1] = system: exon and intron 23 of the dystrophin gene; assay: Example 2: intramuscular injection, Western blot of dystrophin; format: in vivo, mdx mice; conditions: 5 ug intramuscular
Experimental: For intramuscular studies the TA muscle of each experimental mdx mouse was injected with a […] dose of PNA and PNA-peptide conjugates with saline at a final concentration of 125 μg/ml. For systemic intravenous injections, Various amount of PNA or PNA-peptide conjugates in 80 μl saline buffer were injected into tail vein of mdx mice at the final dose of 25 mg/kg, 50 mg/kg and 100 mg/kg, respectively. The animals were killed at various time points after injection by CO2 inhalation and tissues were removed and snap-frozen in liquid nitrogen-cooled isopentane and stored at −80° C.
The collected sections were placed in a 1.5 ml polypropylene eppendorf tube (Anachem, UK) on dry ice. The tissue sections were lysed with 150 μl protein extraction buffer containing 125 mmol/l Tris-HCl (pH=6.8), 10% sodium dodecyl sulphate, 2 mol/l urea, 20% glycerol, and 5% 2-mercaptoethanol. […] The supernatant was collected and the protein concentration was quantified by Bradford assay (Sigma, UK). […] The bound primary antibody was detected by horseradish peroxidise-conjugated rabbit anti-mouse IgGs and the ECL Western Blotting Analysis system (Amersham Pharmacia Biosciences, UK). The intensity of the bands obtained from treated mdx muscles was measured by Image J software; the quantification is based on band intensity and area, and is compared with that from normal muscles of C57BL6 mice.

[2] = system: exon and intron 23 of the dystrophin gene; assay: Example 2: systemic intravenous injection, RT-PCR of exon skipping; format: in vivo, mdx mice; conditions: intravenous 25, 50 and 100 mg/kg; gastrocnemius and abdominal muscles, not other muscles
From the text: To develop AO splice correction therapy for DMD it is essential to establish effective systemic dystrophin correction since DMD is a systemic disease affecting all skeletal muscles, including the diaphragm, and cardiac muscle. Other AO chemistries, including 2′OMePS and PMO chemistries, have been reported to yield variable dystrophin splice correction following intravenous systemic delivery in mdx mice, with high systemic doses being required to detect appreciable efficacy. Here we wished to evaluate the potential of neutral PNA AOs for systemic splice correction in body-wide muscles, and initially evaluated a dose-response using three intravenous single PNA doses of 25, 50 and 100 mg/kg administered to 6 week old mdx mice via tail vein injections. Dystrophin expression was studied by immunostaining of muscle tissue sections from various peripheral muscles (including quadriceps, gastrocnemius, biceps, abdominal wall, diaphragm) and heart muscle three weeks after AO administration (FIG. 7A). […] Measures of phenotypic correction, including serum biochemical measurements of creatine kinase and AST/ALT enzyme levels were negative (FIGS. 7C and D).
Total RNA was extracted from tested muscle tissues with Trizol (Invitrogen, UK) and 200 ng of RNA template was used for 20 μl RT-PCR with OneStep RT-PCR kit (Qiagen, UK). […]

[3] = system: exon and intron 23 of the dystrophin gene; assay: Example 3: intramuscular injection of glucose-formulated AOs, dystrophin-positive myofibres by immunohistochemistry; format: in vivo; conditions: intramuscular into TA, 8 week old mdx mice, two weeks
Experimental: Here we study a novel delivery glucose formulation by evaluating it via local intramuscular injection into the mdx mouse tibialis anterior (TA) muscle. Initial experiments were performed in 6-8 week old mdx mice (referred to as 8 weeks) by treatment with a single dose of 5 ug of 2′OMePS AO formulated in 5% glucose. In a parallel control study, age-matched control mdx mice were treated with the same AO dose formulated in standard saline buffer.
For intramuscular studies the TA muscle of each experimental mdx mouse was injected with a 40 μl dose of PNA and PNA-peptide conjugates with saline at a final concentration of 125 μg/ml, and the contralateral muscle was injected with saline. […]
Sections of 8 μm were cut from at least two-thirds of the muscle length of TA, quadriceps, gastrocnemius, biceps, abdominal wall and diaphragm muscles and cardiac muscle at 100 μm intervals. […] The maximum number of dystrophin-positive fibres in one section was counted using the Zeiss AxioVision fluorescence microscope. […] Polyclonal antibodies were detected by goat-anti-rabbit IgGs Alexa Fluro 594 (Molecular Probe, UK). […] Polyclonal antibodies were detected by goat-anti-rabbit IgGs Alexa 594 and the monoclonal antibodies by goat-anti-mouse IgGs Alexa 594 (Molecular Probe, UK). […]

## 5′-ggccaaaccteggcttacct-3′ [PNA]
[1]; 8 week time point
  level of dystrophin protein restored (Western blot): about 20 % of normal levels
[1]; 20 weeks post administration
  dystrophin protein (Western blot): considerably reduced levels
[2]
  exon skipping (RT-PCR): only very level of exon skipping
[3]
  dystrophin-positive myofibres, 5% glucose formulation compared with saline formulation: significant improvement
